From ChEMBL document CHEMBL3868618, “Synthesis and biological evaluation of chalcone derivatives containing aminoguanidine or acylhydrazone moieties” (Bioorg Med Chem Lett, 2016) come the findings set out here.

Structures are written as SMILES. ≈ marks a conversion by molar mass, not a printed value.

Experiment [1] concerns Staphylococcus aureus. As to the kind of experiment: Antibacterial activity against Staphylococcus aureus 209 measured after 24 hrs by two-fold serial dilution method. In kind it is functional. To be noted: Staphylococcus aureus, 209, 24 h.
A further experiment deals with Streptococcus mutans. The experiment in a line: Antibacterial activity against Streptococcus mutans 3065 measured after 24 hrs by two-fold serial dilution method. In kind it is functional. To be noted: Streptococcus mutans, 3065, 24 h.
A further experiment has as its system Pseudomonas aeruginosa. As to the kind of experiment: Antibacterial activity against Pseudomonas aeruginosa 2742 measured after 24 hrs by two-fold serial dilution method. In kind it is functional. Particulars: Pseudomonas aeruginosa, 2742, 24 h.
For a further experiment, the system named is Candida albicans. The experiment in a line: Antifungal activity against Candida albicans 7535 measured after 24 hrs by two-fold serial dilution method. In kind it is functional. Particulars: Candida albicans, 7535, 24 h.
For the next experiment, the system named is Salmonella typhimurium. As to the kind of experiment: Antibacterial activity against Salmonella typhimurium 1926 measured after 24 hrs by two-fold serial dilution method. In kind it is functional, Salmonella enterica subsp. enterica serovar Typhimurium. Particulars: Salmonella enterica, 1926, 24 h.
For experiment [2], the system named is Staphylococcus aureus. The experiment in a line: Antibacterial activity against Staphylococcus aureus 4220 measured after 24 hrs by two-fold serial dilution method. In kind it is functional. Particulars: Staphylococcus aureus, 4220, 24 h.
In experiment [3] the test system is Escherichia coli. The experiment in a line: Antibacterial activity against Escherichia coli 1356 measured after 24 hrs by two-fold serial dilution method. In kind it is functional. Particulars: Escherichia coli, 1356, 24 h.
For the next experiment, the system named is Mus musculus. The experiment in a line: Antiinflammatory activity in mouse assessed as inhibition of xylene-induced ear edema at 100 mg/kg, ip administered 30 mins before xylene challenge measured after 30 mins relative to DMSO-control. In kind it is functional.
Experiment [4] deals with Staphylococcus aureus. The experiment in a line: Antibacterial activity against quinolone-resistant Staphylococcus aureus 3505 measured after 24 hrs by two-fold serial dilution method. Particulars: Staphylococcus aureus, 3505, 24 h. In kind it is functional.
The test system of experiment [5] is Staphylococcus aureus. The experiment in a line: Antibacterial activity against quinolone-resistant Staphylococcus aureus 3519 measured after 24 hrs by two-fold serial dilution method. In kind it is functional. Particulars: Staphylococcus aureus, 3519, 24 h.
The subject of experiment [6] is Staphylococcus aureus. The experiment in a line: Antibacterial activity against methicillin-resistant Staphylococcus aureus 3506 measured after 24 hrs by two-fold serial dilution method. In kind it is functional. Particulars: Staphylococcus aureus, 3506, 24 h.
For experiment [7], the system named is Escherichia coli. The experiment in a line: Antibacterial activity against Escherichia coli 1924 measured after 24 hrs by two-fold serial dilution method. In kind it is functional. To be noted: Escherichia coli, 1924, 24 h.
The subject of experiment [8] is Staphylococcus aureus. The experiment in a line: Antibacterial activity against methicillin-resistant Staphylococcus aureus 3167 measured after 24 hrs by two-fold serial dilution method. In kind it is functional. Particulars: Staphylococcus aureus, 3167, 24 h.
Experiment [9] has as its system Staphylococcus aureus. The experiment in a line: Antibacterial activity against Staphylococcus aureus 503 measured after 24 hrs by two-fold serial dilution method. To be noted: Staphylococcus aureus, 503, 24 h. In kind it is functional.

For orientation: MIC means the lowest concentration that inhibits growth of the organism. A low value points to greater potency. For orientation: inhibition in vivo means how much of the control response was suppressed. With `N=C(N)N/N=C/c1ccc(/C=C/C(=O)c2ccc(F)cc2)cc1`, the MIC with Staphylococcus aureus [1] amounted to 8 µg/mL (≈ 25.8 µM); in the experiment with Streptococcus mutans, 8 µg/mL (≈ 25.8 µM); against Pseudomonas aeruginosa, 4 µg/mL (≈ 12.9 µM); in the experiment on Candida albicans, 4 µg/mL (≈ 12.9 µM); in the experiment with Salmonella typhimurium it was 4 µg/mL (≈ 12.9 µM); against Staphylococcus aureus [2] it was 4 µg/mL (≈ 12.9 µM). The MIC in the experiment with Escherichia coli [3] is 8 µg/mL (≈ 25.8 µM); with Staphylococcus aureus [4] it was 8 µg/mL (≈ 25.8 µM); in the experiment with Staphylococcus aureus [5] it was 8 µg/mL (≈ 25.8 µM); against Staphylococcus aureus [6], 4 µg/mL (≈ 12.9 µM); against Escherichia coli [7] it was 4 µg/mL (≈ 12.9 µM); against Staphylococcus aureus [8], 8 µg/mL (≈ 25.8 µM). The compound further came in with an MIC in the experiment with Staphylococcus aureus [9] of 8 µg/mL (≈ 25.8 µM). Also, the inhibition in vivo at 100 mg/kg in the experiment with Mus musculus was determined as 90.7%.

`O=C(/C=C/c1ccc(/C=N/NC(=O)c2cccc(Cl)c2)cc1)c1cccc(Cl)c1`: the MIC in the experiment with Staphylococcus aureus [1] was 32 µg/mL (≈ 75.6 µM); against Streptococcus mutans, greater than 64 µg/mL; against Pseudomonas aeruginosa, greater than 64 µg/mL; against Candida albicans, greater than 64 µg/mL; with Salmonella typhimurium it was greater than 64 µg/mL; in the experiment on Staphylococcus aureus [2] it was 32 µg/mL (≈ 75.6 µM). Moreover, the MIC in the experiment on Escherichia coli [3], in the experiment with Staphylococcus aureus [4], against Staphylococcus aureus [5], in the experiment with Staphylococcus aureus [6], in the experiment on Escherichia coli [7] and in the experiment with Staphylococcus aureus [8] was 32 µg/mL (≈ 75.6 µM) throughout. For the same compound, the MIC with Staphylococcus aureus [9] stood at 32 µg/mL (≈ 75.6 µM).

On to `Cc1ccc(C(=O)/C=C/c2ccc(/C=N/NC(=N)N)cc2)cc1`, for which the MIC in the experiment on Staphylococcus aureus [1] was found to be 4 µg/mL (≈ 13.1 µM); against Streptococcus mutans, 8 µg/mL (≈ 26.1 µM); with Pseudomonas aeruginosa, 2 µg/mL (≈ 6.53 µM); in the experiment with Candida albicans, 2 µg/mL (≈ 6.53 µM); in the experiment with Salmonella typhimurium, 4 µg/mL (≈ 13.1 µM); in the experiment with Staphylococcus aureus [2], 4 µg/mL (≈ 13.1 µM). Further, the MIC in the experiment with Escherichia coli [3] turned out to be 8 µg/mL (≈ 26.1 µM); in the experiment on Staphylococcus aureus [4] it was 4 µg/mL (≈ 13.1 µM); against Staphylococcus aureus [5], 4 µg/mL (≈ 13.1 µM); in the experiment with Staphylococcus aureus [6] it was 2 µg/mL (≈ 6.53 µM); against Escherichia coli [7], 4 µg/mL (≈ 13.1 µM); against Staphylococcus aureus [8], 8 µg/mL (≈ 26.1 µM). The same compound came in with a minimum inhibitory concentration (MIC) in the experiment with Staphylococcus aureus [9] of 4 µg/mL (≈ 13.1 µM). In addition, the inhibition in vivo at 100 mg/kg in the experiment with Mus musculus was found to be 77.7%.

`OC(Cn1cncn1)(Cn1cncn1)c1ccc(F)cc1F` [FLUCONAZOLE] had an MIC against Candida albicans of 1 µg/mL (≈ 3.27 µM).

Regarding `COc1c(N2CCNC(C)C2)c(F)cc2c(=O)c(C(=O)O)cn(C3CC3)c12` (stereo not drawn) [GATIFLOXACIN], the MIC in the experiment with Staphylococcus aureus [1] came out at 2 µg/mL (≈ 5.33 µM); in the experiment with Streptococcus mutans, 0.5 µg/mL (≈ 1.33 µM); with Pseudomonas aeruginosa it was 1 µg/mL (≈ 2.66 µM); with Salmonella typhimurium it was 2 µg/mL (≈ 5.33 µM); against Staphylococcus aureus [2], 0.25 µg/mL (≈ 0.666 µM); in the experiment with Escherichia coli [3] it was 16 µg/mL (≈ 42.6 µM). The MIC against Staphylococcus aureus [4] turned out to be 8 µg/mL (≈ 21.3 µM); in the experiment on Staphylococcus aureus [5] it was 4 µg/mL (≈ 10.7 µM); with Staphylococcus aureus [6] it was 2 µg/mL (≈ 5.33 µM); against Escherichia coli [7], 2 µg/mL (≈ 5.33 µM); against Staphylococcus aureus [8] it was 2 µg/mL (≈ 5.33 µM); with Staphylococcus aureus [9] it was 4 µg/mL (≈ 10.7 µM).

`CC(C)Cc1ccc(C(C)C(=O)O)cc1` (stereo not drawn) [IBUPROFEN]: in the experiment on Mus musculus, the inhibition in vivo at 100 mg/kg was found to be 87.4%.

In the case of `COc1c(N2C[C@@H]3CCCN[C@@H]3C2)c(F)cc2c(=O)c(C(=O)O)cn(C3CC3)c12` [MOXIFLOXACIN], the MIC in the experiment with Streptococcus mutans was determined as 0.25 µg/mL (≈ 0.623 µM); in the experiment on Salmonella typhimurium it was 1 µg/mL (≈ 2.49 µM); in the experiment with Staphylococcus aureus [2] it was 0.25 µg/mL (≈ 0.623 µM); against Escherichia coli [3] it was 128 µg/mL (≈ 319 µM); in the experiment with Staphylococcus aureus [9], 2 µg/mL (≈ 4.98 µM).

As to `CCn1cc(C(=O)O)c(=O)c2cc(F)c(N3CCNCC3)cc21` [NORFLOXACIN], the MIC in the experiment on Staphylococcus aureus [4] is greater than 64 µg/mL; in the experiment with Staphylococcus aureus [5] it was greater than 64 µg/mL; against Staphylococcus aureus [6], 4 µg/mL (≈ 12.5 µM); with Staphylococcus aureus [8], 8 µg/mL (≈ 25.1 µM).

As for `Cc1onc(-c2ccccc2)c1C(=O)N[C@@H]1C(=O)N2[C@@H]1SC(C)(C)[C@@H]2C(=O)O` [OXACILLIN], the MIC in the experiment on Staphylococcus aureus [4] is 1 µg/mL (≈ 2.49 µM); in the experiment on Staphylococcus aureus [5], 1 µg/mL (≈ 2.49 µM); in the experiment with Staphylococcus aureus [6], greater than 64 µg/mL; with Staphylococcus aureus [8], greater than 64 µg/mL.
